# Read-outs that look alike come from different tables or passages of the source.
# Molecular target: T1, human 17β-hydroxy steroid dehydrogenase type 1 (Homo sapiens, UniProt P14061)
# T1 construct: made in house; host or cells: E. coli (suspension of bacterial pellets, enzyme not purified)
# T1 sequence (P14061 1-328): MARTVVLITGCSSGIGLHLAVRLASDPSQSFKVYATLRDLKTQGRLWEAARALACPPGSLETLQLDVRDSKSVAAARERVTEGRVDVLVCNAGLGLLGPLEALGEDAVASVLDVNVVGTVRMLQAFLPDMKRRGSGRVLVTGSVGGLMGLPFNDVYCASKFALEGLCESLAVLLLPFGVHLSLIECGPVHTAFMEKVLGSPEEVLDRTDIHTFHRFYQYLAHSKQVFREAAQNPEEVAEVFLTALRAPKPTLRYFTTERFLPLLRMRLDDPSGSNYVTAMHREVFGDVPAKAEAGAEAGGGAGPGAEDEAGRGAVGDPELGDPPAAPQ
# Assay: Inhibition of the activity of human 17β-hydroxy steroid dehydrogenase type 1 (3H-labeled substrate conversion, HPLC)
# Format: biochemical
# Excerpt: The test method is well described in the literature [Adamski, J., Sierralta, W. D., Jungblut, P. W., Acta Endocrinol (Copenh.) 121(2) (1989), 161-7] and is depicted below.
# Human 17β-hydroxy steroid dehydrogenases (17β-HSDs) are over-expressed in E. coli bacteria as His-Tag proteins or as GST-fusion proteins. The suspensions of the bacterial pellets in isotonic common salt solution are used for the determination of enzyme activities of the 17β-HSDs or for the study of their influence by potential inhibitors (estrogen derivatives).
# The measurements are made in double determination and, if necessary, at various concentrations of potential inhibitors (e.g., in determining the IC50 values). In addition to the target enzyme 17β-HSD1, other steroid-metabolizing enzymes are included in the test to study cross reactivities of estrogen derivatives.
# The incubation of the samples is carried out at 37° C. in a water bath while being shaken, such that in the control (without substances to be tested), a conversion of about 30% is achieved.
# The separation of radiolabeled substrate and product is then carried out, after extraction with 1 ml of reversed phase-(RP-18)-cartridges, by means of HPLC on an RP18 column with acetonitrile:water 1:1 (v/v) as a mobile phase. The radioactivity is detected with the aid of a flow-scintillation counter.
# The evaluation of the substrate conversion with and without substances to be tested is performed by the integration of the substrate and product peaks. The conversion of the control normalized to 100% conversion.
# [1] = enzyme over-expressed in E. coli, bacterial suspension, 37° C., read-out: 17βHSD1 IC50
Compound,IC50 [nM],IC50 [1] [nM]
"C[C@]12CC[C@@H]3c4cc(Cl)c(O)cc4CC[C@H]3[C@@H]1C[C@H](F)C2=O [Compound 4, 2-Chloro-16β-fluoro-3-hydroxy-estra-1,3,5(10)-trien-17-one]",35,–
"C[C@]12CC[C@@H]3c4cc(Cl)c(O)cc4CC[C@H]3[C@@H]1CCC2=O [Compound 11, 2-Chloro-3-hydroxy-estra-1,3,5(10)-trien-17-one]",–,140
"C[C@]12CC[C@@H]3c4cc(CCc5ccccc5)c(O)cc4CC[C@H]3[C@@H]1CCC2=O [Compound 21, 3-Hydroxy-2-(2′-phenyl-ethyl)estra-1,3,5(10)-trien-17-one]",47,–
"CCc1cc2c(cc1O)CC[C@@H]1[C@@H]2CC[C@]2(C)C(=O)CC[C@@H]12 [Compound 23, 2-Ethyl-3-hydroxy-estra-1,3,5(10)-trien-17-one]",–,89
"C[C@]12CC[C@@H]3c4cc(C#Cc5ccccc5)c(O)cc4CC[C@H]3[C@@H]1CCC2=O [Compound 19, 3-Hydroxy-2-phenylethinyl-estra-1,3,5(10)-trien-17-one]",–,56
"C[C@]12CC[C@@H]3c4cc(C#N)c(O)cc4CC[C@H]3[C@@H]1CCC2=O [Compound 12, 2-Cyano-3-hydroxy-estra-1,3,5(10)-trien-17-one]",–,148
"CC[C@]12CC[C@@H]3c4cc(Cl)c(O)cc4CC[C@H]3[C@@H]1CCC2=O [Compound 1, 2-Chloro-3-hydroxy-18a-homoestra-1,3,5(10)-trien-17-one]",–,121
"C[C@]12CC[C@@H]3c4cc(Cl)c(O)cc4CC[C@H]3[C@@H]1C[C@@H](F)C2=O [Compound 3, 2-Chloro-16α-fluoro-3-hydroxy-estra-1,3,5(10)-trien-17-one]",101,–

# From patent US7419972B2, “2-substituted estra-1,3,5(10)-trien-17-ones as inhibitors of 17β-hydroxy steroid dehydrogenase type 1” (Schering AG, priority 2004, dated 2008)
